In brackets after ≈: the same amount, converted by molar mass.
Tests used:
[1] = Stability and compatibility of fenofibrate and E463808 (gradient HPLC); type: physicochemical; settings: 80 or 200 mg/mL in E463808, sealed vial or gelcap, 4 deg C. to 60 deg C., up to 8 weeks
[2] = Equilibrium fenofibrate solubility in ethyl esters versus triglycerides; type: physicochemical; settings: fenofibrate solubility at 25 degrees C. in the vehicle given as label
[3] = in vivo; cited from earlier work
[4] = Solubility of fenofibrate in E463808-additive mixtures; type: physicochemical; settings: about 10% v/v additive; 25° C.
Procedure: Equilibrated samples were filtered using 0.2 micrometer PVDF syringe filters and diluted for assay. […] (Tween 85 is also known as polyoxyethylenesorbitan trioleate, Tween 80 is also known as polyoxyethylenesorbitan monooleate, Span 80 is also known as sorbitan monooleate, Span 85 is also known as sorbitan trioleate, and Cremophor EL is also known as polyoxyl castor oil.) Span 80, Span 85, and Tween 85 samples were analyzed using normal-phase HPLC. Cremophor EL, Tween 80, and replicates of Tween 85 samples were analyzed using UV measurements at 285 nm.

Compound	effect of additive on fenofibrate solubility in E463808 [4]	further results
CC(C)OC(=O)C(C)(C)Oc1ccc(C(=O)c2ccc(Cl)cc2)cc1 [Fenofibrate, 2-[4-(4-chlorobenzoyl)phenoxy]-2-methyl-propanoic acid 1-methylethyl ester]	–	degradation of fenofibrate [1]: no degradation was observed
CCCCC/C=C\C/C=C\CCCCCCCC(=O)OCC(COC(=O)CCCCCCC/C=C\C/C=C\CCCCC)OC(=O)CCCCCCC/C=C\C/C=C\CCCCC [Trilinolein]	–	Solubility [2]: 61.2 mg/mL (≈ 69.6 mM)
CC(C)(Oc1ccc(C(=O)c2ccc(Cl)cc2)cc1)C(=O)O [fenofibric acid]	–	elimination half-life [3]: approximately twenty
polyoxyethylenesorbitan monooleate [Tween 80®]	Slight enhancement in fenofibrate solubility	–
polyoxyethylenesorbitan trioleate [Tween 85®]	Slight enhancement in fenofibrate solubility	–
polyoxyl castor oil [Cremophor® EL]	Slight enhancement in fenofibrate solubility	–
